According to patent publication US20050026833A1, “PSP-94: use for treatment of hypercalcemia and bone metastasis” (priority 2001, published 2005):

Legend:
[1] = test system: Mat Ly Lu-PTHrP skeletal metastasis; experiment: Bone histomorphometry of vertebrae (tumor volume to bone volume); type: in vivo, male Copenhagen rats
Procedure: Alternatively, cell pellets (10×10^3 cells) were resuspended in 100ul saline and injected using 1 ml syringes into the left ventricle of rats anaesthetised with ketamine/xylazine cocktail. […] The time after tumor cell inoculation which was required to develop hind limb paralysis (an index of spinal cord compression due to lumbar vertebrae metastasis) was determined and percentage of starting number of animals developing hind-limb paralysis was plotted. […]
Computer-Assisted Image Analysis. Computer-assisted image analysis was carried out to quantify PTHrP immunostaining and determination of % TV/BV in the vertebral sections. […] The threshold was set by determining the positive staining of control sections and was used to automatically analyze all recorded images of all samples that were stained in the same session under identical conditions. The area of stained regions was calculated automatically by the software in each microscopic field. Pixel counts of the immunoreaction product were calculated automatically and were given as total density of the integrated immunostaining over a given area. […]

[2] = test system: PTHrP; experiment: Tumoral PTHrP production by immunohistochemistry of primary tumors; type: in vivo, male Copenhagen rats
Procedure: Histologic Analysis. For immunohistological analysis, primary tumor samples were dewaxed by heating at 60° C. and rehydrated in a graded alcohol series (100%-70%). Anti-rat antibody against PTHrP was used as the primary antibody. Tumor sections were incubated overnight at 4° C. followed by further incubation with biotinylated universal antibody (Vector Laboratories, Burlingame, Calif.) for 45-60 minutes. Sections were rinsed with TBST (Tris buffered saline-Tween) followed by incubation with Vectastain ABC-AP Reagent (Vector Laboratories, Burlingame, Calif.) for 30 minutes. These sections were again washed with TBST and incubated with a Napthol AS-Mix Phosphate/Fast Red solution (Sigma-Aldriche, Oakville, ON). The sections were finally counterstained with Methyl Green (Vector Laboratories, Burlingame, Calif.) and mounted.
Alternatively, paraffin embedded tumor samples were cut into 5 um-thick sections for immunohistochemical analysis. […]
Tumors from control group treated with vehicle alone and experimental groups treated with different doses of PSP-94 (0.1-10.0 μg/kg/day) were excised, paraffin embedded, and sectioned and analyzed for tumoral PTHrP production by immunohistochemical reaction specific for PTHrP using method described herein. […] Three animals were present in each group and three tumor sections were analyzed for each animal by evaluating at least ten random fields of observation.
Primary tumors from control vehicle treated animals and animals treated with the highest dose of PCK3145 (100.0 ug/kg/day) were removed, paraffin embedded, and sectioned. […] Therefore, tumors from control group treated with vehicle alone and experimental group treated with the highest dose of PCK3145 (100.0 ug/kg/day) were excised and analyzed for tumoral PTHrP production by immunohistochemical analysis. […] No reaction was seen when these tumors were evaluated for background reaction in the absence of PTHrP antibody (NC).

Row | Molecule | ratio of tumor volume to bone volume (TV/BV) ([1]; 100.0 ug/kg PCK3145, day 10 post inoculation, vs vehicle) | trabecular and cortical bone destruction with compression of the spinal cord ([1]; 100.0 ug/kg/day PCK3145, day 10, vs vehicle) | tumoral PTHrP production (PTHrP immuno-staining) ([2]; 100.0 ug/kg PCK3145, relative to lower doses) | tumoral PTHrP production (PTHrP immuno-staining) ([2]; different doses of PCK3145 (data not shown), vs vehicle) | tumoral PTHrP production (PTHrP immunostaining) ([2]; PSP-94 0.1-10.0 ug/kg/day, vs vehicle)
1 | E W Q T D N C E T C T C Y E T (EWQTDNCETCTCYET; PCK3145 (polypeptide 31-45)) | significant decrease | significantly less | most pronounced | dose dependent decrease | 
2 | PSP-94: prostate secretory protein of 94 amino acids; native human seminal plasma PSP-94 (protein) SCYFIPNEGVPGDSTRKCMDLKGNKHPINSEWQTDNCETCTCYETEISCCTLVSTPVGYDKDNCQRIFKKEDCKYIVVEKKDPKKTCSVSEWII |  |  |  |  | same dose-dependent decrease
